According to patent US20250313544A1, “INHIBITORS OF GLUTATHIONE S-TRANSFERASE ZETA 1 (GSTZ1) AND METHODS OF USE” (H. LEE MOFFITT CANCER CENTER AND RESEARCH INSTITUTE, INC., priority 2022, published 2025):

Columns and labels:
[1] = tested on: H1792 cells harboring KRAS G12C; test: Cell viability assay (CellTiter-Glo) in H1792 cells; assay type: cell-based, human
Description: (§1) Cells were seeded in Corning 384-well black walled/clear bottom microplates with a density of 1,000 cells/well and treated with indicated drugs and concentrations following cell attachment for 24 h. After 72 h or 96 h, as indicated, cell viability was evaluated with CellTiter-Glo (Promega, Madison, WI) according to manufacturer's recommendations. An M5 Spectramax plate reader (Molecular devices) was used to read the plates with 500 ms integration. Data was processed and analyzed using Excel and GraphPad Prism 9.0.

H1792 LUAD cells = test: Chemical proteomics target profiling in live H1792 cells (label-free LC-MS/MS, comparison with control probe 22 and panel-wide cross-comparison); assay type: binding, human; conditions: for number of probe-enriched target candidates over control probe 22 (promiscuity): log2 ratio vs. control probe >2.32; for prominent target protein predominantly enriched by the probe: compared to control probe and probe panel; for other proteins also enriched by the probe: log2 ratio>2.32 and enrichment score>2
Description: (§2) Cells were grown in 10 cm dishes to ˜90% confluence at the time of treatment. Cells were carefully washed twice with Dulbecco's phosphate buffered saline (DPBS) and replenished with fresh serum-free RPMI 1640 media containing indicated probes ([…]), competitors, or DMSO. Without competitors, cells were incubated with probes for 30 min at 37° C. and then exposed to 365 nm UV light for 15 min on ice. With competitors, cells were pre-treated with competitors for 30 min and photoactivated for 15 min. Probes were then added to cells for an additional 30 min incubation. For no UV experiments, cells were incubated for 15 min under ambient light. Cells were harvested in cold DPBS and pellets were washed with cold DPBS (2 X). Pellets were either directly processed or kept frozen at −80° C. until use. Cells pellets were lysed for 30 min in cold DPBS (100-300 uL) per culture dish supplemented with 1% NP-40, followed by sonication (5 pulses, 4 s on, 20 s off, output setting=4). Lysates were centrifuged at 20,817×g for 20 min, and supernatant (soluble proteome) was used for further processing. Protein concentrations were determined using Bradford assays.
Protein pellets were transferred to 5 mL microcentrifuge tubes and then resuspended in a freshly-prepared solution of proteomics-grade urea (320 μL, 6 M Urea in DPBS) containing 80 μL of 10% SDS and dissolved by sonication. To each solution, 4 mL DPBS was added (final conc: 0.2%, total volume) and incubated with pre-equilibrated NeutrAvidin agarose resin (100 μL 1:1 slurry, Pierce, Cat. 29201) for 2 hrs at ambient temperature on a rotator. The NeutrAvidin beads were collected by centrifugation (1,400×g, 2 min) and sequentially washed with 0.2% SDS in DPBS (2×2 mL), detergent-free DPBS (2×2 mL), and 50 mM ammonium bicarbonate (AMBIC, 2×2 mL). Beads were resuspended with 200 μL 50 mM AMBIC and incubated with TCEP 50 μL (100 mM in 50 mM AMBIC) for 30 min at 37° C. Iodoacetamide (50 μL of 200 mM in 50 mM AMBIC) was added and incubated for 30 min at ambient temperature. The beads were again washed with 2×1 mL 50 mM AMBIC and resuspended in 100 μL of fresh 50 mM AMBIC and treated with 2 μg of sequencing grade modified trypsin (Promega, #V5111) at 37° C. overnight. These samples were acidified with formic acid (final conc: 5%) and centrifuged (1,000×g, 2 min). The supernatant was collected and desalted through ZIPTIPs, and the desalted peptide mixture were dried in vacuum and reconstituted with HPLC buffer (2% acetonitrile, 0.1% formic acid) for LC-MS/MS analysis. Tryptic peptides of avidin were excluded from MS2 analysis to maximize detection of the protein targets (Table S7). Samples were analyzed using LC-MS/MS after being spiked with 50 fmol/uL PRTC standards (88320, Pierce Retention Time Calibration Mixture, Thermo Fisher, MA). A nanoflow ultra high performance liquid chromatograph and nanoelectrospray orbitrap mass spectrometer (RSLCnano and Q Exactive plus, Thermo) were used for LC-MS/MS. The sample was loaded onto a pre-column (C18 PepMap100, 2 cm length×100 μm ID packed with C18 reversed-phase resin, 5 μm particle size, 100 Å pore size) and washed for 8 minutes with aqueous 2% acetonitrile and 0.1% formic acid. Trapped peptides were eluted onto the analytical column, (C18 PepMap100, 25 cm length×75 μm ID, 2 μm particle size, 100 Å pore size, Thermo). A 120-minute gradient was programmed as: 95% solvent A (aqueous 2% acetonitrile+0.1% formic acid) for 8 minutes, solvent B (aqueous 90% acetonitrile+0.1% formic acid) from 5% to 38.5% in 90 minutes, then solvent B from 50% to 90% B in 7 minutes and held at 90% for 5 minutes, followed by solvent B from 90% to 5% in 1 minute and re-equilibration for 10 minutes using a flow rate of 300 nl/min. Spray voltage was 1900 V. Capillary temperature was 275° C. S lens RF level was set at 40. Top 16 tandem mass spectra were collected in a data-dependent manner. The resolution for MS and MS/MS were set at 70,000 and 17,500 respectively. […]

[2] = tested on: drug-refractory NSCLC cells (H1792, H520, HCC366); test: Cell viability assay (CellTiter-Glo) across drug-refractory NSCLC cell lines; assay type: cell-based, human; conditions: single agent
Description: as §1

H1792 cells [3] = test: In-gel fluorescence analysis of probe-labeled proteins after photocrosslinking in live H1792 cells; assay type: binding, human; conditions: compared to vehicle
Description: as §2
To 1 mg of protein, were added a mixture of TBTA (Tris((1-benzyl-4-triazolyl)methyl)amine, 60 μL/sample, 1.7 mM in 1:4 DMSO: t-BuOH stock), CuSO4 (20 μL/sample, 50 mM in H2O), TCEP (tris(2-carboxyethyl) phosphine, 20 μL/sample, 50 mM in DPBS, made fresh) and Biotin-Azide conjugate (10 μL/sample, 10 mM in DMSO stock). Each sample was rotated at room temperature for 2 h. To each resultant a cold 4:1 mixture (600 μL) of methanol (MeOH)/chloroform (CHCl3) was added followed by cold PBS (100 μL) on ice. The resulting cloudy mixture was centrifuged (5,000×g, 10 min, 4° C.) to fractionate the protein interface from the organic and aqueous solvent layers. A MeOH:CHCl3 (1:1, 1 mL, 2×) mixture was used to wash protein discs thoroughly. Protein discs were sonicated in cold 4:1 MeOH:CHCl3 (2 mL) mixture. The remaining precipitate was pelleted by centrifugation (5,000×g, 10 min, 4° C.). […] Gels were subjected to fluorescence imaging or Western Blotting.

[4] = tested on: H520 cells harboring amplified FGFR1; test: Cell viability assay (CellTiter-Glo) in H520 cells; assay type: cell-based, human
Description: as §1

H1792 cells [5] = test: Protein tyrosine reactivity profiling (SuTEx probe HHS-482, LC-MS/MS) in H1792 cells; assay type: cell-based, human; conditions: 24 h treatment, log2 ratio ≤−0.585 or ≥0.585, p<0.05 vs. vehicle
Description: Cell lysates were prepared and diluted to 2 mg/mL in PBS. Samples were treated with HHS-482 (a SuTEx probe) at 25 μM for 1 h at room temperature. Labeled proteomes were subjected to CuAAC conjugation with Biotin-Azide conjugate (200 μM) by mixing with TCEP (1 mM), TBTA (100 μM), and CuSO4 (1 mM). After 1 h incubation, resulting mixtures were subjected to MeOH: CHCl3 extraction as described above. Protein discs were reconstituted with urea buffer supplemented with 10% SDS. Samples were processed with NeutrAvidin beads, on-bead digestion with trypsin, and ZIPTIP purification as described above. Samples were dried in vacuum and prepared for LC-MS/MS analysis.

C=CC(=O)N1CCN(c2ncnc3c(F)c(-c4c(O)cccc4F)c(Cl)cc23)CC1 [ARS1620, reference compound]
cell response to targeted drug ([1]; H1792, KRAS^G12C mutation): poorly responded

C#CCCC1(CCC(=O)NC2CC(Oc3nccn4nc(C)cc34)CC(C)(C)C2)N=N1 (stereo not drawn) [Probe 2, 3-(3-(but-3-yn-1-yl)-3H-diazirin-3-yl)-N-(3,3-dimethyl-5-((2-methylpyrazolo[1,5-a]pyrazin-4-yl)oxy)cyclohexyl)propanamide]
number of probe-enriched target candidates over control probe 22 (promiscuity) (H1792 LUAD cells): most promiscuous

C#CCCC1(CCC(=O)N2CCC(Oc3ncc(C(F)(F)F)cc3Cl)C2)N=N1 (stereo not drawn) [Probe 5, 3-(3-(but-3-yn-1-yl)-3/-diazirin-3-yl)-1-(3-((3-chloro-5-(trifluoromethyl)pyridin-2-yl)oxy)pyrrolidin-1-yl)propan-1-one]
prominent target protein predominantly enriched by the probe (H1792 LUAD cells): ME3 | number of probe-enriched target candidates over control probe 22 (promiscuity) (H1792 LUAD cells): most promiscuous | other proteins also enriched by the probe (H1792 LUAD cells): FARSA, PTGR1, ME1, YIF1A, and SGPL1 | cellular activity of probes (cell viability) [2]: displayed activity toward multiple tested cell lines | proteome labeling by probe (in-gel fluorescence) (H1792 cells [3]): efficiently labeled a wide range of proteins

C#CCCC1(CCC(=O)N2CCN(Cc3nc(-c4cccs4)cs3)CC2)N=N1 [Probe 6, 3-(3-(but-3-yn-1-yl)-3H-diazirin-3-yl)-1-(4-((4-(thiophen-2-yl)thiazol-2-yl)methyl)piperazin-1-yl)propan-1-one]
prominent target protein predominantly enriched by the probe (H1792 LUAD cells): NDUFB11 | number of probe-enriched target candidates over control probe 22 (promiscuity) (H1792 LUAD cells): most promiscuous | other proteins also enriched by the probe (H1792 LUAD cells): NDUFB10, AK3, and LTA4H

C#CCCC1(CCC(=O)Nc2ccc3c(c2)N(CC(C)C)C(=O)C(C)(C)CO3)N=N1 [Probe 7, 3-(3-(but-3-yn-1-yl)-3H-diazirin-3-yl)-N-(5-isobutyl-3,3-dimethyl-4-oxo-2,3,4,5-tetrahydrobenzo[b][1,4]oxazepin-7-yl)propanamide]
prominent target protein predominantly enriched by the probe (H1792 LUAD cells): MMGT1 | number of probe-enriched target candidates over control probe 22 (promiscuity) (H1792 LUAD cells): most promiscuous | cellular activity of probes (cell viability) [2]: displayed activity toward multiple tested cell lines

C#CCCC1(CCC(=O)N2CC(Nc3ncccn3)C2)N=N1 [Probe 18, 3-(3-(but-3-yn-1-yl)-3H-diazirin-3-yl)-1-(3-(pyrimidin-2-ylamino)azetidin-1-yl)propan-1-one]
number of probe-enriched target candidates over control probe 22 (promiscuity) (H1792 LUAD cells): few

C#CCCC1(CCC(=O)N2CCCCC2c2nnc(C(=O)OC)s2)N=N1 (stereo not drawn) [Probe 19, Methyl-5-(1-(3-(3-(but-3-yn-1-yl)-3H-diazirin-3-yl)propanoyl)piperidin-2-yl)-1,3,4-thiadiazole-2-carboxylate]
number of probe-enriched target candidates over control probe 22 (promiscuity) (H1792 LUAD cells): few

C#CCCC1(CCC(=O)N2CCCC2COc2nc3ccccc3cc2C#N)N=N1 (stereo not drawn) [Probe 20, 2-((1-(3-(3-(but-3-yn-1-yl)-3H-diazirin-3-yl)propanoyl)pyrrolidin-2-yl)methoxy)quinoline-3-carbonitrile]
cellular activity of probes (cell viability) [2]: displayed activity toward multiple tested cell lines

C#CCCC1(CCC(=O)NCCCNC(=O)c2ccc3c4c(ncnc24)-c2ccccc2C3=O)N=N1 [Probe 21, N-(3-(3-(3-(but-3-yn-1-yl)-3H-diazirin-3-yl)propanamido)propyl)-7-oxo-7H-benzo[e]perimidine-4-carboxamide]
number of candidate target proteins identified for the probe (H1792 LUAD cells): 5 | cellular activity of probes (cell viability) [2]: displayed activity toward multiple tested cell lines | relative potency among active probes (cell viability) [2]: more potent | cellular activity (cell viability) ([1]; H1792 cells, single agent): highly active | cellular activity (cell viability) ([4]; H520 cells, single agent): highly active | proteome labeling by probe (in-gel fluorescence) (H1792 cells [3]): efficiently labeled a wide range of proteins

CCN1CCN(c2ccc(Nc3cc(N(C)C(=O)Nc4c(Cl)c(OC)cc(OC)c4Cl)ncn3)cc2)CC1 [infigratinib, reference compound]
cell response to targeted drug ([4]; H520, FGFR1 overexpression): only partially respond

C=CC(=O)N1CCN(c2nc(=O)n(-c3c(C)ccnc3C(C)C)c3nc(-c4c(O)cccc4F)c(F)cc23)[C@@H](C)C1 [sotorasib]
number of proteins with significantly altered Tyr reactivity (H1792 cells [5]): 106 proteins
